Experimental data reported in patent US9382208B1, “Negative allosteric modulators of metabotropic glutamate receptor 2” (Vanderbilt University, priority 2015, dated 2016).

Target: T1, rat mGlu2 (Rattus norvegicus, UniProt P31421)
T1 construct: expressed in transfected cells
Experiment: mGlu2 Ca2+ flux assay
Format: cell-based
Settings: for IC50: Gα15 HEK293 cells stably expressing rat mGlu2, glutamate EC80 addition, read-out: rat mGlu2 IC50; for remaining activity at 30 µM: amplitude of response in the presence of 30 μM test compound as percentage of maximal response to glutamate, read-out: rat mGlu2 Glu max (%)
Protocol: Gα15 HEK293 cells stably expressing rat mGlu2 were plated in black-walled, clear-bottomed, poly-D-lysine coated 384-well plates in 20 μL of assay medium (DMEM containing 10% dialyzed FBS, 20 mM HEPES, and 1 mM sodium pyruvate) at a density of 12K cells/well. The cells were grown overnight at 37° C. in the presence of 5% CO2. The next day, medium was removed and the cells incubated with 20 μL of 2.3 μM Fluo-4, AM prepared as a 2.3 mM stock in DMSO and mixed in a 1:1 ratio with 10% (w/v) pluronic acid F-127 and diluted in assay buffer (Hank's balanced salt solution, 20 mM HEPES, and 2.5 mM probenecid) for 45 minutes at 37° C. Dye was removed, 20 μL of assay buffer was added, and the plate was incubated for 5 minutes at room temperature.
Ca^2+ flux was measured using the Functional Drug Screening System (FDSS7000, Hamamatsu, Japan). After establishment of a fluorescence baseline for about 3 seconds, the compounds of the present invention were added to the cells, and the response in cells was measured. 2.3 minutes later an EC20 concentration of the mGlu2 receptor agonist glutamate was added to the cells, and the response of the cells was measured for 1.9 minutes; an EC80 concentration of agonist was added and readings taken for an additional 1.7 minutes. All test compounds were dissolved and diluted to a concentration of 10 mM in 100% DMSO. Compounds were then serially diluted 1:3 in DMSO into 10 point concentration response curves, transferred to daughter plates, and further diluted into assay buffer to a 2× stock. Calcium fluorescence measures were recorded as fold over basal fluorescence; raw data was then normalized to the maximal response to glutamate. Antagonism of the agonist response of the mGlu2 receptor in the present invention was observed as a decrease in response to nearly maximal concentrations of glutamate in the presence of compound compared to the response to glutamate in the absence of compound.
The raw data file containing all time points was used as the data source in the analysis template. This was saved by the FDSS as a tab-delimited text file. Data were normalized using a static ratio function (F/F0) for each measurement of the total 360 values per well divided by each well's initial value. Data were then reduced to peak amplitudes (Max−Initial Min) using a time range that starts approximately 3 seconds prior to the glutamate EC80 addition and continues for approximately 90 seconds. This is sufficient time to capture the peak amplitude of the cellular calcium response. Individual amplitudes were expressed as % ECMax by multiplying each amplitude by 100 and then dividing the product by the mean of the amplitudes derived from the glutamate ECMax-treated wells. IC50 values for test compounds were generated by fitting the normalized values versus the log of the test compound concentration (in mol/L) using a 4 parameter logistic equation where none of the parameters were fixed. Each of the three values collected at each concentration of test compound were weighted evenly.
For NAMs, potency (IC50) and maximum response (% Glu Max), i.e. the amplitude of response in the presence of 30 μM test compound as a percentage of the maximal response to glutamate, are reported. […] Compounds with no measurable activity are designated as “>30,000 nM” since the top concentration of compound tested in the assay is 30 μM.

T1 sequence (P31421 19-872): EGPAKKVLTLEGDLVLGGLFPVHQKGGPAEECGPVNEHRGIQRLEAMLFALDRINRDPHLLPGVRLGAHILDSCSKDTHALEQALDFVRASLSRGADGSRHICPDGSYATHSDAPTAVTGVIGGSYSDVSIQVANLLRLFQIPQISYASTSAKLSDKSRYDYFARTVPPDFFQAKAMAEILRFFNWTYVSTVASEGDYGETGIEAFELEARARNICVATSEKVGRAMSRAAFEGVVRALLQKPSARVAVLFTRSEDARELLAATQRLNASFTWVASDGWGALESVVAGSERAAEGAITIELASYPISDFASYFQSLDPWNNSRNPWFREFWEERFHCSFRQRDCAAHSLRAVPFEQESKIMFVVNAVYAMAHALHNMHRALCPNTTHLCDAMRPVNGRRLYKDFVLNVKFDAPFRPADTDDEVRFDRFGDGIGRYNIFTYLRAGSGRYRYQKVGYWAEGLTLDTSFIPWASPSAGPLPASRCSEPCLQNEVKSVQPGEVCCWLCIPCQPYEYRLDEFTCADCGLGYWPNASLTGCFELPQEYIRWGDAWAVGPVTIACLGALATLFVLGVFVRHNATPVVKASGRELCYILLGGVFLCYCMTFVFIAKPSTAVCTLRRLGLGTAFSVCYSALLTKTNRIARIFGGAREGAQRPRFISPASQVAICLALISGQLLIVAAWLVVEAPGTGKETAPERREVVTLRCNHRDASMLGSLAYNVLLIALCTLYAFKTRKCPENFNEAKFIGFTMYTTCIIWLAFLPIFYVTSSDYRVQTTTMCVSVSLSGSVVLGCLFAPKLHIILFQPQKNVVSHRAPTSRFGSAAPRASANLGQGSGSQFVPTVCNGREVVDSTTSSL

Row | SMILES | IC50 [nM] | remaining activity at 30 µM [%]
1 | Cc1ccc(COc2ccc3c(c2)c(=O)c(C(N)=O)cn3-c2ccc(F)cc2)cn1 [Compound 21, 1-(4-fluorophenyl)-6-((6-methylpyridin-3-yl)methoxy)-4-oxo-1,4-dihydroquinoline-3-carboxamide] | 541 ± 116 | 1.55 ± 0.39
2 | NC(=O)c1cn(-c2ccc(F)cc2)c2ccc(-c3ccncc3)cc2c1=O [Compound 63, 1-(4-fluorophenyl)-4-oxo-6-(pyridin-4-yl)-1,4-dihydroquinoline-3-carboxamide] | 407 | 0.97
3 | CCN(Cc1cccnc1)c1ccc2c(c1)c(=O)c(C(N)=O)cn2-c1ccc(F)cc1 [Compound 42, 6-(ethyl(pyridin-3-ylmethyl)amino)-1-(4-fluorophenyl)-4-oxo-1,4-dihydroquinoline-3-carboxamide] | 167 | 2.57
4 | NC(=O)c1cn(-c2ccc(F)cc2)c2ccc(CCc3cncc(F)c3)cc2c1=O [Compound 48, 1-(4-fluorophenyl)-6-(2-(5-fluoropyridin-3-yl)ethyl)-4-oxo-1,4-dihydroquinoline-3-carboxamide] | 1030 | 1.4
5 | Cc1ncc(CN(C)c2ccc3c(c2)c(=O)c(C(N)=O)cn3-c2ccc(F)cc2)cn1 [Compound 31, 1-(4-fluorophenyl)-6-(methyl((2-methylpyrimidin-5-yl)methyl)amino)-4-oxo-1,4-dihydroquinoline-3-carboxamide] | 153 ± 33 | 1.86 ± 0.26
6 | CC(Oc1ccc2c(c1)c(=O)c(C(N)=O)cn2-c1ccc(F)cc1)c1ccncc1 (stereo not shown) [Compound 23, 1-(4-fluorophenyl)-4-oxo-6-(1-(pyridin-4-yl)ethoxy)-1,4-dihydroquinoline-3-carboxamide] | 460 ± 62 | 1.07 ± 0.13
7 | NC(=O)c1cn(-c2ccc(F)cc2)c2ccc(COc3ccncc3F)cc2c1=O [Compound 32, 1-(4-fluorophenyl)-6-(((3-fluoropyridin-4-yl)oxy)methyl)-4-oxo-1,4-dihydroquinoline-3-carboxamide] | 243 ± 63 | 1.83 ± 0.2
8 | CN(Cc1ccc2c(c1)c(=O)c(C(N)=O)cn2-c1ccc(F)cc1)C1CC1 [Compound 70, 6-((cyclopropyl(methyl)amino)methyl)-1-(4-fluorophenyl)-4-oxo-1,4-dihydroquinoline-3-carboxamide] | 821 | 1.33
9 | NC(=O)c1cn(-c2ccc(F)cc2)c2ccc(CN3CCC(F)(F)CC3)cc2c1=O [Compound 78, 6-((4,4-difluoropiperidin-1-yl)methyl)-1-(4-fluorophenyl)-4-oxo-1,4-dihydroquinoline-3-carboxamide] | 197 ± 91 | 1.59 ± 0.27
10 | NC(=O)c1cn(-c2ccc(F)cc2)c2ccc(-c3cccnc3)cc2c1=O [Compound 60, 1-(4-fluorophenyl)-4-oxo-6-(pyridin-3-yl)-1,4-dihydroquinoline-3-carboxamide] | 277 | 1.33
11 | Cc1ncc(CCc2cc3c(=O)c(C(N)=O)cn(-c4ccc(F)cc4)c3cc2F)cn1 [Compound 54, 7-fluoro-1-(4-fluorophenyl)-6-(2-(2-methylpyrimidin-5-yl)ethyl)-4-oxo-1,4-dihydroquinoline-3-carboxamide] | 2700 | 1.02
12 | CN(Cc1ccc2c(c1)c(=O)c(C(N)=O)cn2-c1ccc(F)cc1)C1CCCC1 [Compound 69, 6-((cyclopentyl(methyl)amino)methyl)-1-(4-fluorophenyl)-4-oxo-1,4-dihydroquinoline-3-carboxamide] | 2190 | 1.39
13 | NC(=O)c1cn(-c2ccc(F)cc2)c2ccc(Nc3cccnc3)cc2c1=O [Compound 16, 1-(4-fluorophenyl)-4-oxo-6-(pyridin-3-ylamino)-1,4-dihydroquinoline-3-carboxamide] | 433 | 1.77
14 | COc1ccc(-n2cc(C(N)=O)c(=O)c3cc(CCc4cnc(C)nc4)ccc32)c(F)c1 [Compound 13, 1-(2-fluoro-4-methoxyphenyl)-6-(2-(2-methylpyrimidin-5-yl)ethyl)-4-oxo-1,4-dihydroquinoline-3-carboxamide] | 311 | 1.14
15 | NC(=O)c1cn(-c2ccc(F)cc2)c2ccc(COc3ccnc(C(F)(F)F)c3)cc2c1=O [Compound 34, 1-(4-fluorophenyl)-4-oxo-6-(((2-(trifluoromethyl)pyridin-4-yl)oxy)methyl)-1,4-dihydroquinoline-3-carboxamide] | 534 | 1.97
16 | Cc1ncc(CCc2ccc3c(c2)c(=O)c(C(N)=O)cn3-c2ccc(F)cc2)cn1 [Compound 1, 1-(4-Fluorophenyl)-6-(2-(2-methylpyrimidin-5-yl)ethyl)-4-oxo-1,4-dihydroquinoline-3-carboxamide] | 227 ± 55 | 1.52 ± 0.26
17 | NC(=O)c1cn(-c2ccc(F)cc2)c2ccc(CN3CCC(F)(F)C3)cc2c1=O [Compound 86, 6-((3,3-difluoropyrrolidin-1-yl)methyl)-1-(4-fluorophenyl)-4-oxo-1,4-dihydroquinoline-3-carboxamide] | 259 | 0.98
18 | NC(=O)c1cn(-c2ccc(F)cc2)c2c(F)cc(CN3CCC(F)(F)C3)cc2c1=O [Compound 95, 6-((3,3-difluoropyrrolidin-1-yl)methyl)-8-fluoro-1-(4-fluorophenyl)-4-oxo-1,4-dihydroquinoline-3-carboxamide] | > 10000 | 31.1
19 | CC1CN(Cc2ccc3c(c2)c(=O)c(C(N)=O)cn3-c2ccc(F)cc2)CCO1 (stereo not shown) [Compound 79, 1-(4-fluorophenyl)-6-((2-methylmorpholino)methyl)-4-oxo-1,4-dihydroquinoline-3-carboxamide] | 328 ± 64 | 1.31 ± 0.04
20 | CC1CN(Cc2cc(F)c3c(c2)c(=O)c(C(N)=O)cn3-c2ccc(F)cc2)CCO1 (stereo not shown) [Compound 93, 8-fluoro-1-(4-fluorophenyl)-6-((2-methylmorpholino)methyl)-4-oxo-1,4-dihydroquinoline-3-carboxamide] | 6520 | 0.14
21 | NC(=O)c1cn(-c2ccc(F)cc2)c2ccc(CN3CCCS(=O)(=O)CC3)cc2c1=O [Compound 85, 6-((1,1-dioxido-1,4-thiazepan-4-yl)methyl)-1-(4-fluorophenyl)-4-oxo-1,4-dihydroquinoline-3-carboxamide] | 422 ± 52 | 1.24 ± 0.04
22 | Cc1ncc(CCc2cc(F)c3c(c2)c(=O)c(C(N)=O)cn3-c2ccc(F)cc2)cn1 [Compound 49, 8-fluoro-1-(4-fluorophenyl)-6-(2-(2-methylpyrimidin-5-yl)ethyl)-4-oxo-1,4-dihydroquinoline-3-carboxamide] | 155 | 1.53
23 | NC(=O)c1cn(-c2ccc(F)cc2)c2ccc(COc3ccc(F)nc3)cc2c1=O [Compound 45, 1-(4-fluorophenyl)-6-(((6-fluoropyridin-3-yl)oxy)methyl)-4-oxo-1,4-dihydroquinoline-3-carboxamide] | 352 | 1.47
24 | NC(=O)c1cn(-c2ccc(F)cc2)c2ccc(Oc3ccc(F)nc3)cc2c1=O [Compound 58, 1-(4-fluorophenyl)-6-((6-fluoropyridin-3-yl)oxy)-4-oxo-1,4-dihydroquinoline-3-carboxamide] | 1360 | 1.18
25 | NC(=O)c1cn(-c2ccc(F)cc2)c2ccc(CCc3ccccc3)cc2c1=O [Compound 5, 1-(4-fluorophenyl)-4-oxo-6-phenethyl-1,4-dihydroquinoline-3-carboxamide] | ≥ 10000 | 4.65
26 | CN(Cc1ccncc1)c1ccc2c(c1)c(=O)c(C(N)=O)cn2-c1ccc(F)cc1 [Compound 19, 1-(4-fluorophenyl)-6-(methyl(pyridin-4-ylmethyl)amino)-4-oxo-1,4-dihydroquinoline-3-carboxamide] | 224 | 1.02
